ChEMBL document CHEMBL4431386, “Potent selective monoamine oxidase B inhibition by maackiain, a pterocarpan from the roots of Sophora flavescens” (Bioorg Med Chem Lett, 2016)

Columns and labels:
[1] = target: T1, Amine oxidase [flavin-containing] A (Homo sapiens, UniProt P21397); assay: Inhibition of recombinant human MAO-A expressed in baculovirus infected BTI insect cells preincubated for 10 mins followed by addition of kynuramine as substrate
T1 sequence (P21397 whole entry): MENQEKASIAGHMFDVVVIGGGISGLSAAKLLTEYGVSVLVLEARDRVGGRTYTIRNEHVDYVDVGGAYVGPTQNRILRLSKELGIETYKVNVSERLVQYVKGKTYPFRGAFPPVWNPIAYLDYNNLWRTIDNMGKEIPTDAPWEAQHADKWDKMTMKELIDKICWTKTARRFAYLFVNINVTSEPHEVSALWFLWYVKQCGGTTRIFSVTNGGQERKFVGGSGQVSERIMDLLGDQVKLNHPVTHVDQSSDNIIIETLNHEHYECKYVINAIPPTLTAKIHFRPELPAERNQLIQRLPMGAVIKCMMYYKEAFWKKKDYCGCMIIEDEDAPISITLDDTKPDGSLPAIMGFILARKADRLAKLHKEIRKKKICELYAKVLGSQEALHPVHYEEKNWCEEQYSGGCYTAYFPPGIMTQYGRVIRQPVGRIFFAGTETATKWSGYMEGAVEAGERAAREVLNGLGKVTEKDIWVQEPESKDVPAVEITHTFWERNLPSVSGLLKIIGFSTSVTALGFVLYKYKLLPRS

[2] = target: T2, Amine oxidase [flavin-containing] B (Homo sapiens, UniProt P27338); assay: Inhibition of recombinant human MAO-B expressed in baculovirus infected BTI insect cells preincubated for 10 mins followed by addition of benzylamine as substrate; assay type: cell-based
T2 sequence (P27338 whole entry): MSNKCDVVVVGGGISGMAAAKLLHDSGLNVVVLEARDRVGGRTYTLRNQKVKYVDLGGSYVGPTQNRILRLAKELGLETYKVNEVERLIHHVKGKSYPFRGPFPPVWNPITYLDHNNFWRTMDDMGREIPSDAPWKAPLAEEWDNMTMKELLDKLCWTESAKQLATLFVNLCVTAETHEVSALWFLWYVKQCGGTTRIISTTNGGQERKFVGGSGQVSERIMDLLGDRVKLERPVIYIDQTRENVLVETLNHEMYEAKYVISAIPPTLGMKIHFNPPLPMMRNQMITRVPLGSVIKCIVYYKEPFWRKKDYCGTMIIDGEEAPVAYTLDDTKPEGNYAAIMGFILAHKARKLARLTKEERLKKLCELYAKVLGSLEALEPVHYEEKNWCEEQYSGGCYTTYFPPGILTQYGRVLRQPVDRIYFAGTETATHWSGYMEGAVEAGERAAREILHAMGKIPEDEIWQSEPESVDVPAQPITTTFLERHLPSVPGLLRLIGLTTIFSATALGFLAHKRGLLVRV

[3] = target: T2, Amine oxidase [flavin-containing] B; assay: Inhibition of recombinant human MAO-B expressed in baculovirus infected BTI insect cells assessed as residual activity at 8 uM preincubated for 10 mins followed by addition of 2 mM of benzylamine as substrate; conditions: read-out: Activity
[4] = target: T2, Amine oxidase [flavin-containing] B; assay: Reversible inhibition of recombinant human MAO-B expressed in baculovirus infected BTI insect cells assessed as residual activity at 8 uM preincubated for 10 mins followed by addition of 2 mM of benzylamine as substrate and further addition of 2 mM of benzylamine at the end of first reaction; conditions: read-out: Activity
[5] = target: T2, Amine oxidase [flavin-containing] B; assay: Time-dependent inhibition of recombinant human MAO-B expressed in baculovirus infected BTI insect cells at 8 uM pretreated with compound up to 30 mins followed by addition of benzylamine as substrate
[6] = target: T3, Amine oxidase [flavin-containing] A (Mus musculus, UniProt Q64133); assay: Inhibition of mouse MAO-A preincubated for 15 mins followed by addition of kynuramine as substrate measured after 30 mins by fluorometric analysis
T3 sequence (Q64133 whole entry): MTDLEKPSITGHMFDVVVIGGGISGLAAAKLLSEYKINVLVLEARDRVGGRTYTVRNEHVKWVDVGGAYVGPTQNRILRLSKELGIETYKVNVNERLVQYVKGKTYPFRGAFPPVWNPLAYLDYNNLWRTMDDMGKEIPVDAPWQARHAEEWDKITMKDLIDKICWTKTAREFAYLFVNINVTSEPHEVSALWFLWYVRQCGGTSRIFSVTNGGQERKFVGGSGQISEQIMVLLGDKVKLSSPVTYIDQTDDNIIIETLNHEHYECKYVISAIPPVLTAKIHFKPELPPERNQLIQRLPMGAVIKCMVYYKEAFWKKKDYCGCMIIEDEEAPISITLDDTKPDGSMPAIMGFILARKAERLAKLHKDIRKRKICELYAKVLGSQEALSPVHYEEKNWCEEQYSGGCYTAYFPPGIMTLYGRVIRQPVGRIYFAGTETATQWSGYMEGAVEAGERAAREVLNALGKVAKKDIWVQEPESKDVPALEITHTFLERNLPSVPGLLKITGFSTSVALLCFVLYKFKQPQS

[7] = target: T4, Amine oxidase [flavin-containing] B (Mus musculus, UniProt Q8BW75); assay: Inhibition of mouse MAO-B preincubated for 15 mins followed by addition of kynuramine as substrate measured after 30 mins by fluorometric analysis
T4 sequence (Q8BW75 whole entry): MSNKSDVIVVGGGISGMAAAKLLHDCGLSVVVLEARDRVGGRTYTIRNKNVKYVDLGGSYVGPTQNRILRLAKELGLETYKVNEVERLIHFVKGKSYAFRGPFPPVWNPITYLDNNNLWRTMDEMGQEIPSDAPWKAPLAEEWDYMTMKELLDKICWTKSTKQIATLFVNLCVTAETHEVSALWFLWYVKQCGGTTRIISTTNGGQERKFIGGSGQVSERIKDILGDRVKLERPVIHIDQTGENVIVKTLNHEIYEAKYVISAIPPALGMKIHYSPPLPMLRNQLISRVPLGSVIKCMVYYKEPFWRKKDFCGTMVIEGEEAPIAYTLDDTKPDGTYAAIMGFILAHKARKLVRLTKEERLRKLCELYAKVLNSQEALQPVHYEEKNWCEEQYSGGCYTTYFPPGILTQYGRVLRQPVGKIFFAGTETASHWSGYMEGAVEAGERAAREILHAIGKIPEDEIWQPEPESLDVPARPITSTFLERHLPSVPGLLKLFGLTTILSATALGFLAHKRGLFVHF

[8] = species: Homo sapiens; assay: Selectivity index, ratio of IC50 for recombinant human MAO-A expressed in baculovirus infected BTI insect cells to IC50 for recombinant human MAO-B expressed in baculovirus infected BTI insect cells
[9] = target: T4, Amine oxidase [flavin-containing] B; assay: Competitive inhibition of mouse brain mitochondrial MAO-B using kynuramine as substrate by Lineweaver-Burk plot analysis
[10] = target: T2, Amine oxidase [flavin-containing] B; assay: Inhibition of recombinant human MAO-B expressed in baculovirus infected BTI insect cells assessed as residual activity at 1.5 uM preincubated for 10 mins followed by addition of 2 mM of benzylamine as substrate; conditions: read-out: Activity
[11] = target: T2, Amine oxidase [flavin-containing] B; assay: Time-dependent inhibition of recombinant human MAO-B expressed in baculovirus infected BTI insect cells at 1.5 uM pretreated with compound up to 30 mins followed by addition of benzylamine as substrate
[12] = target: T2, Amine oxidase [flavin-containing] B; assay: Reversible inhibition of recombinant human MAO-B expressed in baculovirus infected BTI insect cells assessed as residual activity at 1.5 uM preincubated for 10 mins followed by addition of 2 mM of benzylamine as substrate and further addition of 2 mM of benzylamine at the end of first reaction; conditions: read-out: Activity
[13] = target: T2, Amine oxidase [flavin-containing] B; assay: Competitive inhibition of recombinant human MAO-B expressed in baculovirus infected BTI insect cells using benzylamine as substrate by Lineweaver-Burk plot analysis
[14] = target: T2, Amine oxidase [flavin-containing] B; assay: Inhibition of recombinant human MAO-B expressed in baculovirus infected BTI insect cells assessed as residual activity at 20 uM preincubated for 10 mins followed by addition of 2 mM of benzylamine as substrate; conditions: read-out: Activity
[15] = target: T2, Amine oxidase [flavin-containing] B; assay: Time-dependent inhibition of recombinant human MAO-B expressed in baculovirus infected BTI insect cells at 20 uM pretreated with compound up to 30 mins followed by addition of benzylamine as substrate
[16] = target: T2, Amine oxidase [flavin-containing] B; assay: Reversible inhibition of recombinant human MAO-B expressed in baculovirus infected BTI insect cells assessed as residual activity at 20 uM preincubated for 10 mins followed by addition of 2 mM of benzylamine as substrate and further addition of 2 mM of benzylamine at the end of first reaction; conditions: read-out: Activity

IC50 [1] [µM]	IC50 [2] [µM]	IC50 [7] [µM]	Structure (SMILES)	Ratio IC50 [8]	further results
> 100	> 100		CC(C)=CCc1c(O)c(CC=C(C)C)c2c(c1O)C(=O)C[C@@H](c1ccc(O)cc1O)O2		
			O=c1c(-c2ccc(O)cc2)coc2cc(O)cc(O)c12 [GENISTEIN]		activity at 8 µM [3]: 25.3%; activity at 8 µM [4]: 59.5%; TDI [5]: Not Active
31.2	25.8	11	COc1ccc(-c2coc3cc(O)ccc3c2=O)cc1 [FORMONONETIN]	1.2	IC50 [6]: 21.2 µM
38.8	> 100		CC(C)=CCc1c(O)cc(O)c2c1O[C@H](c1ccc(O)cc1)CC2=O	< 0.39	
			COC(=O)/C=C/C=C/c1ccc2c(c1)OCO2 [METHYL PIPERATE]		Ki [9]: 1.3 µM
		0.8	COc1ccc(-c2coc3cc(O)c(CC=C(C)C)c(O)c3c2=O)cc1		
85.8	0.68		Oc1ccc2c(c1)OC[C@H]1c3cc4c(cc3O[C@@H]21)OCO4 [MAACKIAIN]	126	activity at 1.5 µM [10]: 28.7%; TDI [11]: Not Active; activity at 1.5 µM [12]: 66%; Ki [13]: 0.054 µM
20.3	10.3		COc1ccc2c(c1O)OC[C@H]1c3cc4c(cc3O[C@@H]21)OCO4	2	activity at 20 µM [14]: 26.3%; TDI [15]: Not Active; activity at 20 µM [16]: 54.9%
		0.5	C=C(C)[C@H](O)CC/C(C)=C/COc1ccc2ccc(=O)oc2c1		
		0.6	CC(C)=CCC/C(C)=C/COc1ccc2ccc(=O)oc2c1		
